Experimental data reported in ChEMBL document CHEMBL4196171, “Design of Gut-Restricted Thiazolidine Agonists of G Protein-Coupled Bile Acid Receptor 1 (GPBAR1, TGR5)” (J Med Chem, 2018).
≈ marks a conversion by molar mass, not a printed value.

Key:
[1] = Cmax in C57BL/6 mouse plasma at 10 mg/kg, po by HPLC and mass spectrometry; format: ADME, organism-based; set-up: dose 10 mg/kg, route oral
[2] = Apparent permeability from basolateral to apical side in MDCK cells at 10 uM by HPLC-MS/MS method; format: ADME, cell-based, Canis lupus familiaris; conditions: dog
[3] = Drug recovery in C57BL/6 mouse bile/gall bladder at 30 mg/kg, po by LC-MS/MS method; format: ADME, organism-based; conditions: read-out: Drug recovery
[4] = Plasma concentration in C57BL/6 mouse at 30 mg/kg, po measured after 8 hrs by HPLC and mass spectrometry; format: ADME, organism-based
[5] = Solubility in FeSSIF solution at 1 mg/ml at […] by HPLC with UV detector based assay; format: physicochemical
[6] = Drug concentration in bile/gall bladder of C57BL/6 mouse at 30 mg/kg, po measured after 8 hrs by HPLC and mass spectrometry; format: ADME, organism-based; conditions: read-out: Drug uptake
[7] = Drug recovery in C57BL/6 mouse feces at 10 mg/kg, po after 48 hrs by LC-MS/MS method; format: ADME, organism-based; conditions: faeces, read-out: Drug recovery
[8] = Plasma concentration in C57BL/6 DIO mouse at 100 mg/kg, po measured after 4 to 16 hrs post dose by HPLC and mass spectrometry; format: ADME, organism-based; conditions: in vivo
[9] = Plasma concentration in C57BL/6 DIO mouse at 30 mg/kg, po measured after 4 to 16 hrs post dose by HPLC and mass spectrometry; format: ADME, organism-based; conditions: in vivo
[10] = AUC in C57BL/6 mouse plasma at 10 mg/kg, po by HPLC and mass spectrometry; format: ADME, organism-based
[11] = Apparent permeability from apical to basolateral side in MDCK cells at 10 uM by HPLC-MS/MS method; format: ADME, cell-based, Canis lupus familiaris; conditions: dog

Row | concentration at 8 h [4] [ng/mL] | concentration at 8 h [6] [nM] | Compound | also measured
1 | < 2 | 90 | O=C(NC[C@H](O)[C@@H](O)[C@H](O)[C@H](O)CO)c1ccc(COc2cc(Cl)c(CN3CSC[C@H]3C(=O)N3CCN(C4CC4)c4ccccc43)cc2Cl)cc1 | Cmax [1]: 2 ng/mL; Papp B→A at 10 µM [2]: 0.07 ×10⁻⁶ cm/s; dose excreted [3]: < 0.01%; solubility [5]: 820 µg/mL (≈ 1080 µM); dose excreted at 48 h [7]: 83%; Drug uptake [8]: Not Active; Drug uptake [9]: Not Active; AUC [10]: < 5 ng·h/mL; Papp A→B at 10 µM [11]: < 0.01 ×10⁻⁶ cm/s
2 | – | – | O=C([C@@H]1CCCN1Cc1cc(Cl)ccc1Cl)N1CCN(C2CC2)c2ccccc21 | solubility [5]: 360 µg/mL (≈ 836 µM)
3 | – | – | O=C(c1cccnc1Oc1cc(Cl)ccc1Cl)N1CCN(C2CC2)c2ccccc21 | solubility [5]: < 50 µg/mL
4 | 3.6 | 1300 | CN(C[C@H](O)[C@@H](O)[C@H](O)[C@H](O)CO)C(=O)CCCCc1cc(Cl)c(CN2CSC[C@H]2C(=O)N2CCN(C3CC3)c3ccccc32)cc1Cl | –
5 | 2.3 | 1900 | CN(C[C@H](O)[C@@H](O)[C@H](O)[C@H](O)CO)C(=O)CC[C@H](NC(=O)CCCCc1cc(Cl)c(CN2CSC[C@H]2C(=O)N2CCN(C3CC3)c3ccccc32)cc1Cl)C(=O)O | –
6 | – | 4700 | O=C(O)CN(CCCCCc1cc(Cl)c(CN2CSC[C@H]2C(=O)N2CCN(C3CC3)c3ccccc32)cc1Cl)CC(=O)O | –
7 | < 0.5 | 600 | O=C(O)CNC(=O)CNC(=O)CNC(=O)CCCCc1cc(Cl)c(CN2CSC[C@H]2C(=O)N2CCN(C3CC3)c3ccccc32)cc1Cl | –
8 | – | 300 | O=C(NCCCN(CCCNC(=O)[C@H](O)[C@@H](O)[C@H](O)[C@H](O)CO)C(=O)NCCCCOc1cc(Cl)c(CN2CSC[C@H]2C(=O)N2CCN(C3CC3)c3ccccc32)cc1Cl)[C@H](O)[C@@H](O)[C@H](O)[C@H](O)CO | –
9 | – | 3700 | O=C(O)CN(C[C@H](O)[C@@H](O)[C@H](O)[C@H](O)CO)C(=O)CCCCc1cc(Cl)c(CN2CSC[C@H]2C(=O)N2CCN(C3CC3)c3ccccc32)cc1Cl | –
10 | 1.2 | 6000 | O=C(NCCCCCc1cc(Cl)c(CN2CSC[C@H]2C(=O)N2CCN(C3CC3)c3ccccc32)cc1Cl)NC(CO)(CO)CO | –
11 | 0.6 | 1700 | C[C@@H](NC(=O)[C@@H](C)NC(=O)[C@@H](C)NC(=O)CCCCc1cc(Cl)c(CN2CSC[C@H]2C(=O)N2CCN(C3CC3)c3ccccc32)cc1Cl)C(=O)O | –
12 | 2.8 | 80 | O=C(NCCCCCc1cc(Cl)c(CN2CSC[C@H]2C(=O)N2CCN(C3CC3)c3ccccc32)cc1Cl)N1CCN(CP(=O)(O)O)CC1 | –

Row | Compound | concentration at 8 h [4] [ng/mL] | concentration at 8 h [6] [nM] | also measured
13 | O=C(CCCCc1cc(Cl)c(CN2CSC[C@H]2C(=O)N2CCN(C3CC3)c3ccccc32)cc1Cl)N[C@@H](C(=O)O)[C@@H](O)[C@H](O)[C@H](O)CO | 28.1 | 3900 | –
14 | O=C(NCCCCCc1cc(Cl)c(CN2CSC[C@H]2C(=O)N2CCN(C3CC3)c3ccccc32)cc1Cl)NCP(=O)(O)O | 24.8 | 3100 | –
15 | O=C(O)CNC(=O)[C@H](CSSC[C@H](NC(=O)CC[C@H](NC(=O)CCCCc1cc(Cl)c(CN2CSC[C@H]2C(=O)N2CCN(C3CC3)c3ccccc32)cc1Cl)C(=O)O)C(=O)NCC(=O)O)NC(=O)CC[C@H](NC(=O)CCCCc1cc(Cl)c(CN2CSC[C@H]2C(=O)N2CCN(C3CC3)c3ccccc32)cc1Cl)C(=O)O | < 10 | < 100 | –
